The results in this text go back to patent publication US10099993B2, “Metabotropic glutamate receptor positive allosteric modulators (PAMS) and uses thereof” (Sanford-Burnham Medical Research Institute, priority 2014, dated 2018).

The EC50 is the concentration needed to bring the measured effect to its halfway point.

Structures are written as SMILES.

One test addresses mGlu2 (Rattus norvegicus (Rat), UniProt P31421). In words: mGlu2 GIRK thallium flux assay.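 As to all read-outs here: Cell-based assay, rate of fluorescence rise right after thallium plus agonist addition read on a kinetic imaging plate reader, normalized to vehicle and maximal agonist control.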 As to conditions: for Emax: read-out: mGlu2 PAM Max; for EC50: read-out: mGlu2 PAM EC50, test compound, then EC20 glutamate […] later in the presence of thallium.
Another test addresses mGlu3 (Rattus norvegicus (Rat), UniProt P31422). In words: mGlu3 GIRK thallium flux assay.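 As to all read-outs here: kinetic fluorescence slope read shortly after thallium plus agonist addition, scaled between vehicle and maximal agonist control.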 As to conditions: for Emax: read-out: mGlu3 PAM Max; for EC50: read-out: mGlu3 PAM EC50, test compound, then EC20 glutamate […] later in the presence of thallium.
Where [1] appears, read: PAM mode, mean ± SEM, at least three experiments.

Chain of mGlu3 (P31422 23-879): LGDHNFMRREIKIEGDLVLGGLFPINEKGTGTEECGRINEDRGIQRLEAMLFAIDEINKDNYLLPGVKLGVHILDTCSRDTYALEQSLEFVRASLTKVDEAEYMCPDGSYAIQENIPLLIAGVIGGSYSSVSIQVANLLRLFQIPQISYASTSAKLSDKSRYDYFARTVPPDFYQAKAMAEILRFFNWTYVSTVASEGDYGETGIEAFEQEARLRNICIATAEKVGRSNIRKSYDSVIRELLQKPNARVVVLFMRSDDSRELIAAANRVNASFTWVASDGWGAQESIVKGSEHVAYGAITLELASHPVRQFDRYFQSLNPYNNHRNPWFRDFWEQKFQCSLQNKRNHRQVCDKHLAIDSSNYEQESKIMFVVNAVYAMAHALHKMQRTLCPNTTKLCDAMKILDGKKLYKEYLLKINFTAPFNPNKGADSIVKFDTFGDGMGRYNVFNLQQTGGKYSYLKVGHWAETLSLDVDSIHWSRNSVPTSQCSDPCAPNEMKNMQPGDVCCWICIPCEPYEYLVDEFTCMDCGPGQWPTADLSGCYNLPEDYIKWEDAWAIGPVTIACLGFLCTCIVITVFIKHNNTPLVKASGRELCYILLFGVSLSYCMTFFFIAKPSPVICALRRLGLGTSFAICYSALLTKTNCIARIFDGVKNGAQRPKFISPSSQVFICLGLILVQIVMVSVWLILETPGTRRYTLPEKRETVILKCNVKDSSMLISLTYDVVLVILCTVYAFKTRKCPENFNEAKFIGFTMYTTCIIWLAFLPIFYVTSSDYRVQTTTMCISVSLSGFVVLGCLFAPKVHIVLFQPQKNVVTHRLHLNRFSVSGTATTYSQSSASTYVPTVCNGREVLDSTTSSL
Chain of mGlu2 (P31421 19-872): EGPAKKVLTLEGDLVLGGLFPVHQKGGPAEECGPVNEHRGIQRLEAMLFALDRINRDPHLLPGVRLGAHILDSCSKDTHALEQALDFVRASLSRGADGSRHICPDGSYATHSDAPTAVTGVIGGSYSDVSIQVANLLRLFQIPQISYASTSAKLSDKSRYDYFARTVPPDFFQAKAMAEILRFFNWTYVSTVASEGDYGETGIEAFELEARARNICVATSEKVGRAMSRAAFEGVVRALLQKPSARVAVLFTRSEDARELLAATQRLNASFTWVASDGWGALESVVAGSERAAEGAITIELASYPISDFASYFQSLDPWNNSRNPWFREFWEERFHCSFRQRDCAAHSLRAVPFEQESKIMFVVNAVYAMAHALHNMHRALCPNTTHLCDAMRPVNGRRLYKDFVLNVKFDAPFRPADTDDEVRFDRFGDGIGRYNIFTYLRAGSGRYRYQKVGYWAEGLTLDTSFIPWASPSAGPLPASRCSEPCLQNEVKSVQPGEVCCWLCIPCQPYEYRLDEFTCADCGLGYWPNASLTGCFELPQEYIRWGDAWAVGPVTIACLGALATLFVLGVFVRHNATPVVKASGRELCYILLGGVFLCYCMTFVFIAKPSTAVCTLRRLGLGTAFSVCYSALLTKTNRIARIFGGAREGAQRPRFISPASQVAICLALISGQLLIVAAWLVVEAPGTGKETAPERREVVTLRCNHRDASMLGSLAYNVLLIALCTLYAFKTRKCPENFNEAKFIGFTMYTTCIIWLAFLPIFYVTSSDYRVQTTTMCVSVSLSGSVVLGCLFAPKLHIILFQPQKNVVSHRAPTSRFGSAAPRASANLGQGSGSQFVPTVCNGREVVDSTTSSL

Turning to `COc1ccc(-c2nnn[nH]2)cc1OCCCCOc1ccc(C(=O)CC(C)(C)C)c(O)c1C` [compound 92, 1-(2-Hydroxy-4-(4-(2-methoxy-5-(1H-tetrazol-5-yl)phenoxy)butoxy)-3-methylphenyl)-3,3-dimethylbutan-1-one], the Emax on mGlu2 worked out at 91.2 ± 1.1%; at mGlu3, 96.7 ± 4%.

Consider `CNC(=O)c1ccc(OC)c(OCCCCOc2ccc(C(=O)CC(C)(C)C)c(O)c2C)c1` [compound 102, 3-(4-(4-(3,3-Dimethylbutanoyl)-3-hydroxy-2-methylphenoxy)butoxy)-4-methoxy-N-methylbenzamide], for which the EC50 at mGlu2 (setting [1]) is 5160 ± 82 nM; on mGlu3 (PAM mode, mean ± SEM), greater than 10000 nM. Also, the Emax was found to be 70.9 ± 2.3% at mGlu2 and 39.2 ± 5.2% on mGlu3.

For the compound `Cc1c(OCc2cccc(COc3ccc(C(=O)O)cc3)c2)ccc(C(=O)CC2CCCC2)c1O` [compound 126], the EC50 at mGlu2 (setting [1]) is greater than 10000 nM; at mGlu3 (PAM mode, mean ± SEM), greater than 30000 nM.

On to `Cc1c(OCc2cccc(-c3cccc(C(=O)O)c3)n2)ccc(C(=O)CC(C)(C)C)c1O` [compound 159, 3-(6-((4-(3,3-Dimethylbutanoyl)-3-hydroxy-2-methylphenoxy)methyl)pyridin-2-yl)benzoic acid], for which the EC50 on mGlu2 (setting [1]) stood at 929 ± 12 nM; at mGlu3 (PAM mode, mean ± SEM), 967 ± 8 nM. Besides, the Emax came to 104 ± 2.5% on mGlu2 and 115 ± 2.1% on mGlu3.

Take `Cc1c(OCCCCOc2ccc(F)c(C(=O)O)c2)ccc(C(=O)CC2CCCC2)c1C` [Compound 35, 5-(4-(4-(2-Cyclopentylacetyl)-2,3-dimethylphenoxy)butoxy)-2-fluorobenzoic acid]: the EC50 on mGlu2 (setting [1]) was greater than 30000 nM; on mGlu3 (PAM mode, mean ± SEM), greater than 30000 nM.

With `COc1ccc(C(=O)O)cc1-c1cccc(COc2ccc(C(=O)CC(C)(C)C)c(O)c2C)c1` [compound 134, 3′-((4-(3,3-Dimethylbutanoyl)-3-hydroxy-2-methylphenoxy)methyl)-6-methoxy-[1,1′-biphenyl]-3-carboxylic acid], the concentration giving a half-maximal response (EC50) at mGlu2 (setting [1]) is 118 ± 2 nM; on mGlu3 (PAM mode, mean ± SEM), 324 ± 94 nM. Also, the results for the Emax on mGlu2 and on mGlu3 were 89.6 ± 2.9% and 76.4 ± 5.4%, respectively.

On to `COc1ccc(B2OC(C)(C)C(C)(C)O2)cc1OCCCCOc1ccc(C(=O)CC(C)(C)C)c(O)c1C` [compound 87, 1-(2-Hydroxy-4-(4-(2-methoxy-5-(4,4,5,5-tetramethyl-1,3,2-dioxaborolan-2-yl)phenoxy)butoxy)-3-methylphenyl)-3,3-dimethylbutan-1-one], for which the figures for the Emax at mGlu2 and at mGlu3 were 49.5 ± 3.5% and 24.9 ± 9.6%, respectively.

For the compound `Cc1c(OCCCCOCc2cccc(-c3cccc(C(=O)O)c3)c2)ccc(C(=O)CC(C)(C)C)c1O` [Compound 187, 3′-((4-(4-(3,3-Dimethylbutanoyl)-3-hydroxy-2-methylphenoxy)butoxy)methyl)-[1,1′-biphenyl]-3-carboxylic acid], the EC50 at mGlu2 (setting [1]) turned out to be 1580 ± 297 nM; on mGlu3 (PAM mode, mean ± SEM), 3070 ± 632 nM. In addition, the Emax was 93.4 ± 3.4% at mGlu2 and 74.1 ± 7.8% at mGlu3.

For `Cc1c(OCCCCOc2ccccn2)ccc(C(=O)CC2CCCC2)c1O` [Compound 186], the concentration for a half-maximal effect (EC50) is greater than 10000 nM on mGlu2 (setting [1]) and greater than 30000 nM at mGlu3 (PAM mode, mean ± SEM).

Consider `Cc1c(OCc2cncc(-c3cccc(C(=O)O)c3)c2)ccc(C(=O)CC(C)(C)C)c1O` [compound 150, 3-(5-((4-(3,3-Dimethylbutanoyl)-3-hydroxy-2-methylphenoxy)methyl)pyridin-3-yl)benzoic acid], for which the 50% effective concentration (EC50) at mGlu2 (setting [1]) was 345 ± 2 nM; on mGlu3 (PAM mode, mean ± SEM) it was 345 ± 9 nM. In addition, the Emax at mGlu2 is 107 ± 2.6%; at mGlu3, 107 ± 6.3%.

As for `Cc1c(OCCCCOc2ccc(C(=O)O)cc2)ccc(C(=O)CC2CCCC2)c1C` [Compound 19, 4-(4-(4-(2-Cyclopentylacetyl)-2,3-dimethylphenoxy)butoxy)benzoic acid], the EC50 is greater than 30000 nM on mGlu2 (setting [1]) and greater than 30000 nM at mGlu3 (PAM mode, mean ± SEM).

For the compound `Cc1c(OCCCCSc2ccncc2)ccc(C(=O)CC2CCCC2)c1C` [Compound 188], the EC50 on mGlu2 (setting [1]) was greater than 30000 nM; at mGlu3 (PAM mode, mean ± SEM), greater than 30000 nM.

Turning to `Cc1c(OCCCCOc2ccccn2)ccc(C(=O)CC(C)C)c1O` [Compound 185], the EC50 was 2790 ± 102 nM on mGlu2 (setting [1]) and greater than 30000 nM on mGlu3 (PAM mode, mean ± SEM). Further, the figures for the Emax at mGlu2 and at mGlu3 were 66.3 ± 0.6% and 22.4 ± 4.3%, respectively.

In the case of `Cc1c(OCc2cnc(-c3cccc(C(=O)O)c3)cn2)ccc(C(=O)CC(C)(C)C)c1O` [compound 163, 3-(5-((4-(3,3-Dimethylbutanoyl)-3-hydroxy-2-methylphenoxy)methyl)pyrazin-2-yl)benzoic acid], the EC50 turned out to be 1450 ± 15 nM on mGlu2 (setting [1]) and 268 ± 5 nM at mGlu3 (PAM mode, mean ± SEM). Besides, the Emax on mGlu2 was determined as 105 ± 1.6%; on mGlu3, 113 ± 5.4%.

`Cc1c(OCc2ncc(-c3cccc(C(=O)O)c3)s2)ccc(C(=O)CC(C)(C)C)c1O` [compound 161, 3-(2-((4-(3,3-Dimethylbutanoyl)-3-hydroxy-2-methylphenoxy)methyl)thiazol-5-yl)benzoic acid]: the EC50 stood at 1878 ± 17 nM at mGlu2 (setting [1]) and 3180 ± 68 nM at mGlu3 (PAM mode, mean ± SEM). Moreover, the Emax stood at 98.2 ± 5.2% on mGlu2 and 114 ± 3.9% at mGlu3.

In the case of `Cc1c(OCc2cccc(COc3ccc(C#N)cc3)c2)ccc(C(=O)CC(C)C)c1C` [compound 115], the EC50 is greater than 30000 nM at mGlu2 (setting [1]) and greater than 30000 nM on mGlu3 (PAM mode, mean ± SEM).

Take `Cc1c(OCCCCOc2ccc(F)c(C(=O)O)c2)ccc(C(=O)CC(C)C)c1C` [Compound 34, 5-(4-(2,3-Dimethyl-4-(3-methylbutanoyl)phenoxy)butoxy)-2-fluorobenzoic acid]: the EC50 at mGlu2 (setting [1]) was greater than 30000 nM; on mGlu3 (PAM mode, mean ± SEM) it was greater than 30000 nM.

For `Cc1c(OCc2cccc(-c3cccc(C(=O)O)c3)c2)ccc(C(=O)CCC(C)(C)C)c1O` [compound 148], the “mGlu2 PAM Max” value at mGlu2 (PAM mode, % Glutamate Max, mean ± SEM, at least three experiments) was determined as 100 ± 3.9%. The EC50 was found to be 2110 ± 215 nM at mGlu2 (setting [1]) and 2580 ± 272 nM on mGlu3 (PAM mode, mean ± SEM). Further, at mGlu3 (PAM mode, % Glutamate Max, mean ± SEM), the “mGlu3 PAM Max” value came to 101.7 ± 2.7%.

On to `Cc1c(OCc2cccc(-c3cnc(C(=O)O)cn3)c2)ccc(C(=O)CC(C)(C)C)c1O` [Compound 181, 5-(3-((4-(3,3-Dimethylbutanoyl)-3-hydroxy-2-methylphenoxy)methyl)phenyl)pyrazine-2-carboxylic acid], for which the EC50 at mGlu2 (setting [1]) amounted to 2134 ± 8 nM; at mGlu3 (PAM mode, mean ± SEM), 4280 ± 64 nM. Moreover, the values for the Emax at mGlu2 and on mGlu3 were 105 ± 3.4% and 106 ± 2.1%, respectively.

Turning to `COC(=O)CCc1cc(OCCCCOc2ccc(C(=O)CC3CCCC3)c(O)c2C)ccc1O` [compound 86], the EC50 was greater than 10000 nM on mGlu2 (setting [1]) and greater than 30000 nM at mGlu3 (PAM mode, mean ± SEM).

On to `Cc1c(OCc2cccc(-c3cccc(-c4nn[nH]n4)c3)c2)ccc(C(=O)CC(C)(C)C)c1O` [compound 152, 1-(4-((3′-(2H-Tetrazol-5-yl)-[1,1′-biphenyl]-3-yl)methoxy)-2-hydroxy-3-methylphenyl)-3,3-dimethylbutan-1-one], for which the Emax on mGlu2 worked out at 103 ± 1.8%; on mGlu3, 98.9 ± 3.7%.

Consider `Cc1c(OCCCCSc2ccncc2)ccc(C(=O)CC(C)C)c1C` [Compound 189], for which the EC50 on mGlu2 (setting [1]) was greater than 30000 nM; at mGlu3 (PAM mode, mean ± SEM), greater than 30000 nM.

Take `Cc1c(OCc2cccc(COc3ccc(C#N)cc3)c2)ccc(C(=O)CC(C)C)c1O` [compound 118]: the half-maximal effective concentration (EC50) at mGlu2 (setting [1]) was greater than 30000 nM; at mGlu3 (PAM mode, mean ± SEM), greater than 30000 nM.

Consider `Cc1c(OCc2cc(-c3cccc(C(=O)O)c3)cs2)ccc(C(=O)CC(C)(C)C)c1O` [compound 162, 3-(5-((4-(3,3-Dimethylbutanoyl)-3-hydroxy-2-methylphenoxy)methyl)thiophen-3-yl)benzoic acid], for which the Emax at mGlu2 is 102 ± 3.5%; on mGlu3 it was 106 ± 6.4%.

`COc1ccc(-c2nsc(=O)[nH]2)cc1OCCCCOc1ccc(C(=O)CC(C)(C)C)c(O)c1C` [compound 100, 3-(3-(4-(4-(3,3-Dimethylbutanoyl)-3-hydroxy-2-methylphenoxy)butoxy)-4-methoxyphenyl)-1,2,4-thiadiazol-5(4H)-one]: the EC50 on mGlu2 (setting [1]) is 2220 ± 709 nM; at mGlu3 (PAM mode, mean ± SEM), greater than 30000 nM. Further, the Emax at mGlu2 was 68.1 ± 0.9%; on mGlu3 it was 33.9 ± 10.1%.

As for `Cc1c(OCCCCOc2ccc(C#N)cc2)ccc(C(=O)CC2CCCC2)c1C` [compound 76], the concentration for a half-maximal effect (EC50) at mGlu2 (setting [1]) is greater than 30000 nM; at mGlu3 (PAM mode, mean ± SEM), greater than 30000 nM.

`CCCc1c(OCCCCOc2ccc(C(=O)O)cc2C)ccc(C(C)=O)c1O` [Compound 191, 4-(4-(4-Acetyl-3-hydroxy-2-propylphenoxy)butoxy)-3-methylbenzoic acid]: the Emax on mGlu2 came to 43.8 ± 5.4%; on mGlu3, 0.1 ± 7.7%.

As to `CC(C)(C)CC(=O)c1ccc(OCc2cccc(-c3cccc(C(=O)O)c3)c2)c(I)c1O` [Compound 192, 3′-((4-(3,3-Dimethylbutanoyl)-3-hydroxy-2-iodophenoxy)methyl)-[1,1′-biphenyl]-3-carboxylic acid], the results for the Emax at mGlu2 and on mGlu3 were 82 ± 5.1% and 62.6 ± 9.7%, respectively.

Take `Cc1c(OCc2cccc(-c3ccc(F)c(C(=O)O)c3)c2)ccc(C(=O)CC(C)(C)C)c1O` [compound 135, 3′-((4-(3,3-Dimethylbutanoyl)-3-hydroxy-2-methylphenoxy)methyl)-4-fluoro-[1,1′-biphenyl]-3-carboxylic acid]: the EC50 came out at 208 ± 20 nM on mGlu2 (setting [1]) and 587 ± 129 nM at mGlu3 (PAM mode, mean ± SEM). Further, the results for the Emax at mGlu2 and on mGlu3 were 88.5 ± 3.8% and 74.4 ± 5%, respectively.

For `COc1ccc(C(=O)NC2CCCC2)cc1OCCCCOc1ccc(C(=O)CC(C)(C)C)c(O)c1C` [compound 112, N-Cyclopentyl-3-(4-(4-(3,3-dimethylbutanoyl)-3-hydroxy-2-methylphenoxy)butoxy)-4-methoxybenzamide], the half-maximal effective concentration (EC50) at mGlu2 (setting [1]) was greater than 10000 nM; at mGlu3 (PAM mode, mean ± SEM) it was greater than 30000 nM. Moreover, the Emax is 35 ± 5.8% on mGlu2 and 40.3 ± 1.6% on mGlu3.

In the case of `Cc1c(OCc2cc(-c3cccc(C(=O)O)c3)ccn2)ccc(C(=O)CC(C)(C)C)c1O` [compound 153, 3-(2-((4-(3,3-Dimethylbutanoyl)-3-hydroxy-2-methylphenoxy)methyl)pyridin-4-yl)benzoic acid], the EC50 came out at 209 ± 3 nM on mGlu2 (setting [1]) and 158 ± 2 nM at mGlu3 (PAM mode, mean ± SEM). In addition, the Emax on mGlu2 was 106 ± 3.9%; at mGlu3, 107 ± 5.5%.
